The supplement of paper PMC10307832

Assays:
Trametinib = compound: CC(=O)Nc1cccc(-n2c(=O)n(C3CC3)c(=O)c3c(Nc4ccc(I)cc4F)n(C)c(=O)c(C)c32)c1 [Trametinib]; assay: relative viability (nuclei count vs DMSO), 5 days (fraction); higher = more cells survive
Summary of the method: (§1)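 Acceptance criteria were a control CV below 25% and at least one doubling per plate. Lung cancer cell lines in 1536-well plates got five library-drug doses (not always all listed) √10 apart by pinning and were left 5 days with no medium change. Viability divides treated-well nuclei by vehicle-well nuclei and is the median across plates. Nuclei were counted by MetaXpress from 4× Hoechst images.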

[1] = compound: CN1C=C(C2=CC=CC=C21)/C=C\3/C4=C(C=CC=N4)NC3=O; assay: as above
Summary of the method: as §1

Cell Line	relative viability (Trametinib; 0.0025 µM)	relative viability (Trametinib; 0.007906 µM)	relative viability (Trametinib; 0.02 µM, anchor plate)	relative viability (Trametinib; 0.025 µM)	relative viability (Trametinib; 0.07906 µM)	relative viability (Trametinib; 0.25 µM)	relative viability ([1]; 0.02 µM)	relative viability ([1]; 0.06325 µM)	relative viability ([1]; 0.2 µM)	relative viability ([1]; 0.6325 µM)	relative viability ([1]; 2 µM)
NCI-H322M	0.81	0.717	0.519	0.603	0.556	0.432	0.854	0.93	0.787	0.973	0.956
NCI-H358	0.643	0.472	0.137	0.328	0.27	0.259	0.907	0.931	0.916	0.891	0.938
NCI-H441	0.959	0.908	0.522	0.667	0.605	0.246	1.19	0.935	1.08	1.01	1.02
NCI-H460	0.982	0.969	0.159	0.668	0.339	0.12	1.04	0.98	0.973	0.992	0.947
NCI-H520	0.86	1.06	0.735	0.924	0.949	0.623	0.967	0.895	1.03	0.952	0.965
NCI-H522	1.01	1.04	0.776	0.595	0.756	0.63	0.89	1.13	0.869	0.944	0.883
NCI-H596	0.934	0.872	0.787	0.802	0.712	0.47	0.985	0.998	0.791	0.982	0.993
NCI-H647	0.837	0.754	0.516	0.588	0.554	0.293	0.946	0.863	0.656	0.784	0.827
NCI-H650	1.1	1.24	0.98	1.08	0.957	0.623	0.968	0.915		0.84	0.846
NCI-H661	1.01	0.975	0.575	0.899	0.799	0.724	0.999	0.986	0.985	1.06	0.986
NCI-H727	0.678	0.381	0.389	0.381	0.295	0.288	0.924	0.855	0.818	0.921	0.936
NCI-H838	0.873	0.855	0.527	0.615	0.763	0.594	0.82	0.859	0.914	0.837	0.909
NCI-H1299	1.04	1.04		0.897	0.818	0.584	1.01	1.01	1.02	1.05	1.02
NCI-H1355	0.921	0.796	0.419	0.542	0.653	0.583	0.933	0.888	0.899	0.692	0.824
NCI-H1395	1.03	0.83	1.03	0.69	0.67	0.523	0.818	0.894	0.632	0.878	0.785
NCI-H1437	0.959	0.742	0.535	0.478	0.388	0.361	1.06	0.998	0.882	1.05	1.04

Cell Line	relative viability (Trametinib; 0.0025 µM)	relative viability (Trametinib; 0.007906 µM)	relative viability (Trametinib; 0.02 µM, anchor plate)	relative viability (Trametinib; 0.025 µM)	relative viability (Trametinib; 0.07906 µM)	relative viability (Trametinib; 0.25 µM)	relative viability ([1]; 0.02 µM)	relative viability ([1]; 0.06325 µM)	relative viability ([1]; 0.2 µM)	relative viability ([1]; 0.6325 µM)	relative viability ([1]; 2 µM)
NCI-H1563	0.983	0.782		0.952	0.938	0.723	1.08	1	0.99	1.05	0.992
NCI-H1623	0.839	0.74		0.552	0.569	0.523	0.815	1.02	0.735	0.85	0.912
NCI-H1648	0.776	0.864	0.505	0.809	0.541	0.455	0.603	0.885	0.812	0.601	0.671
NCI-H1650	0.902	0.898	0.583	0.827	0.599	0.264	1.03	0.923	0.685	0.794	0.914
NCI-H1651	0.942	0.958	0.837	0.851	0.837	0.691	1.07	0.961	0.957	0.945	1.06
NCI-H1666	0.972	0.931	0.864	0.892	0.724	0.617	1.09	0.938	0.99	0.924	0.967
NCI-H1703	0.778	0.906		0.825	0.875	0.684	0.943	0.827	0.8	0.9	0.776
NCI-H1734	0.959	0.92	0.717		0.911	0.41	0.971	0.939		1.05	1.06
NCI-H1755	0.886	0.879	0.773	0.83	0.885	0.842	0.968	0.991	1.05	0.914	0.891
NCI-H1792	0.844	0.856	0.475	0.477	0.387	0.281	0.88	0.979	0.69	0.829	0.957
NCI-H1793	0.59	0.611	0.429	0.298	0.338	0.254	1.02	1.1	0.737	0.79	0.918
NCI-H1915	1.05	0.737	0.3	0.54	0.423	0.353	0.964	0.934	0.97	1.09	1.05
NCI-H1944	0.989	0.672	0.427	0.558	0.487	0.363	0.903	0.948		0.989	0.936
NCI-H1975	0.883	0.76	0.374	0.754	0.431	0.301	1.03	0.898	0.887	0.845	0.677
NCI-H1993	0.698	0.732	0.54	0.548	0.693	0.628	0.927	0.84	0.825	0.671	0.814
NCI-H2009	0.864	0.647	0.297	0.384	0.355	0.331	0.975	0.994	1.02	1.05	1.05
